Results: PMC2680423 (Cell calcium, 2009)
Like-named read-outs stand apart in the source and are kept apart here.

Assays:
Drosophila TRPL channel [1] = target: T1, Drosophila TRPL channel (Drosophila melanogaster, UniProt P48994); test: Whole cell patch clamp of TRPL channels expressed in S2 cells; format: cell-based; conditions: for TRPL Activation/Inhibition: Table 1, TRPL expressed in S2 cells; for Reversibility of effect on TRPL channel: washout, S2 cells
T1 sequence (P48994 1-1124): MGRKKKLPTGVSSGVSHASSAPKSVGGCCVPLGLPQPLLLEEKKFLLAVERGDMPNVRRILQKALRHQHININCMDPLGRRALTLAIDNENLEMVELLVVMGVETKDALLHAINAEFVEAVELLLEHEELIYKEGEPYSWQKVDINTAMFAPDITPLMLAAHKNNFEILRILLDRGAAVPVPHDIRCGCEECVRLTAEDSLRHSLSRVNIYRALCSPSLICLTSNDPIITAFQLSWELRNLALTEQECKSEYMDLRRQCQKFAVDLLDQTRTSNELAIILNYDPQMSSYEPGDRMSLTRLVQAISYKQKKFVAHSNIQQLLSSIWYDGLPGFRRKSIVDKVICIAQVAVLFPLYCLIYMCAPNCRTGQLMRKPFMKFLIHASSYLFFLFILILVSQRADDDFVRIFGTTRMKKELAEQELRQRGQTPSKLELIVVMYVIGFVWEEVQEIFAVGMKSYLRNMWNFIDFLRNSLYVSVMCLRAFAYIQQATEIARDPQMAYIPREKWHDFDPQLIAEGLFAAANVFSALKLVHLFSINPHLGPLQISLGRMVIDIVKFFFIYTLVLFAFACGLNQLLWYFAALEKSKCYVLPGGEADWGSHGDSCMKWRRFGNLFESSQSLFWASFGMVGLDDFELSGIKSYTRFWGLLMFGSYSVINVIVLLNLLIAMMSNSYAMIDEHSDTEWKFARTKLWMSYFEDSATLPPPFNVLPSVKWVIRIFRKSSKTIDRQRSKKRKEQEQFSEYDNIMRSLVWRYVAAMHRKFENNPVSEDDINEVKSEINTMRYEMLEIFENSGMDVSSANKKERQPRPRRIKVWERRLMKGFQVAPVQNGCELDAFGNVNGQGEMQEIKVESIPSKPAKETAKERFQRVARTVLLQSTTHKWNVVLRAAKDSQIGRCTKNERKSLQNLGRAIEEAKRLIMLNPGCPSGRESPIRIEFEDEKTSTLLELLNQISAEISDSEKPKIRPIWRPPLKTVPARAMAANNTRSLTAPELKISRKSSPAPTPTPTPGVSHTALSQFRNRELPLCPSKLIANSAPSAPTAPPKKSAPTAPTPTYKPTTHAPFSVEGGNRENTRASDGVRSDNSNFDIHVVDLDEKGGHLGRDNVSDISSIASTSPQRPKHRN

[2] = system: S2 cells (TRPL not expressed); format: cell-based, Drosophila; conditions: control S2 cells
mammalian TRPM7 = mammalian TRPM7 (Mus musculus, UniProt Q923J1); test: Whole cell patch clamp of TRPM7 expressed in HEK293 cells; format: cell-based
mammalian TRPM7, sequence (Q923J1 whole entry): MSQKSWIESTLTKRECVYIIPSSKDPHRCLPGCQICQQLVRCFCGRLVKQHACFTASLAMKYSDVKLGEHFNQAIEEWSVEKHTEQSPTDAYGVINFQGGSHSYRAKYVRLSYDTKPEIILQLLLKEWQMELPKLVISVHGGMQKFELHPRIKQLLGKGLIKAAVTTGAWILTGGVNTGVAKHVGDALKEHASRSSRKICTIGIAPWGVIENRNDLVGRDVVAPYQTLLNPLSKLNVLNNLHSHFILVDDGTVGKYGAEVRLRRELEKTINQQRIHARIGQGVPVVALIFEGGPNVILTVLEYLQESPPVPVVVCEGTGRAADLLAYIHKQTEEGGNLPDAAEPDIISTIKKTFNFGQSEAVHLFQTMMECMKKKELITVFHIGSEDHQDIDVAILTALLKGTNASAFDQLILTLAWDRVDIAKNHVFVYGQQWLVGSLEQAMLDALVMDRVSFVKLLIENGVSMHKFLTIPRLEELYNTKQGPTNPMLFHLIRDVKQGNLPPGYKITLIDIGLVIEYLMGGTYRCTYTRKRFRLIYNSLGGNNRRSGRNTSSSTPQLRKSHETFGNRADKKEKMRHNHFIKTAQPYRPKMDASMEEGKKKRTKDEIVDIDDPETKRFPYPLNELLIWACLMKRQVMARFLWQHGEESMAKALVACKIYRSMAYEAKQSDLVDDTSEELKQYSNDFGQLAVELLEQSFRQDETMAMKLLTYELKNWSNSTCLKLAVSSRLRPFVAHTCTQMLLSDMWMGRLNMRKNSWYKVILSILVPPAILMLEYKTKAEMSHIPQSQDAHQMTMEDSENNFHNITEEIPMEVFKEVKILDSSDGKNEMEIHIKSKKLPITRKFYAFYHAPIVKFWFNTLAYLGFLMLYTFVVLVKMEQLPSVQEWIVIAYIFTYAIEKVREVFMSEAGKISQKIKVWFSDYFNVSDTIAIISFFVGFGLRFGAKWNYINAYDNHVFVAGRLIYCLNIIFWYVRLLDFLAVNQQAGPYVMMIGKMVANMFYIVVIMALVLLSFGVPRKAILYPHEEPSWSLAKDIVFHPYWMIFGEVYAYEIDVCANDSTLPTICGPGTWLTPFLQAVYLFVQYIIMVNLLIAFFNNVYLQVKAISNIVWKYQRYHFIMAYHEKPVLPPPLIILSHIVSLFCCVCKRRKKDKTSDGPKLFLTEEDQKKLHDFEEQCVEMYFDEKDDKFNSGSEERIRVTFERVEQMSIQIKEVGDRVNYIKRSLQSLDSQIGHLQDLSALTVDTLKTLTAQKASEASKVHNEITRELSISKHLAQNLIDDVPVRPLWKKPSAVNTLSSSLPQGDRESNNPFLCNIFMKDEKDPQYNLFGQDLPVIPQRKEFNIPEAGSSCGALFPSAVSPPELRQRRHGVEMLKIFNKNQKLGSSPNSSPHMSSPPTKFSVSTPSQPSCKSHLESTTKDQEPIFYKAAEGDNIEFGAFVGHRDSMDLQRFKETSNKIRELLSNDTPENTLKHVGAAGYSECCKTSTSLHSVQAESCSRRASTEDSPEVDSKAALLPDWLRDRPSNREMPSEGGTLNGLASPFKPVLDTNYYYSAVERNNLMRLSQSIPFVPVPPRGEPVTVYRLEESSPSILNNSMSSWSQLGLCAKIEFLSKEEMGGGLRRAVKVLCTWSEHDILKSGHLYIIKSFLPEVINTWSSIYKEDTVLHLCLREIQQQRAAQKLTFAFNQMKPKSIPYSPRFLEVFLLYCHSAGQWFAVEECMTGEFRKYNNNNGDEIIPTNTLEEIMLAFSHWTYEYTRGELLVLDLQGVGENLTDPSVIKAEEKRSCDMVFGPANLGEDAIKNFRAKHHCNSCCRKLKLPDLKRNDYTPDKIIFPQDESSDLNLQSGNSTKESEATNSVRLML

[3] = system: mock transfected HEK293 cells; test: Control: mock transfected HEK293 cells, whole cell patch clamp; format: cell-based, Human; conditions: TRPM7 not expressed
[4] = target: TRPM7-GFP expressed in hippocampal neurons (Mus musculus, UniProt Q923J1); test: Synaptic vesicle release; format: cell-based; conditions: 500μM
TRPM7-GFP expressed in hippocampal neurons, sequence (Q923J1 whole entry): as above

[5] = system: control hippocampal neurons; test: Synaptic vesicle release; format: cell-based; conditions: 500μM
TRPM8 = conditions: cited from earlier work
native TRP channel = target: T2, native TRP channel (Drosophila melanogaster, UniProt P19334); test: Light induced current; conditions: WT photoreceptors, 6 min in the dark after application
T2 sequence (P19334 1-1275): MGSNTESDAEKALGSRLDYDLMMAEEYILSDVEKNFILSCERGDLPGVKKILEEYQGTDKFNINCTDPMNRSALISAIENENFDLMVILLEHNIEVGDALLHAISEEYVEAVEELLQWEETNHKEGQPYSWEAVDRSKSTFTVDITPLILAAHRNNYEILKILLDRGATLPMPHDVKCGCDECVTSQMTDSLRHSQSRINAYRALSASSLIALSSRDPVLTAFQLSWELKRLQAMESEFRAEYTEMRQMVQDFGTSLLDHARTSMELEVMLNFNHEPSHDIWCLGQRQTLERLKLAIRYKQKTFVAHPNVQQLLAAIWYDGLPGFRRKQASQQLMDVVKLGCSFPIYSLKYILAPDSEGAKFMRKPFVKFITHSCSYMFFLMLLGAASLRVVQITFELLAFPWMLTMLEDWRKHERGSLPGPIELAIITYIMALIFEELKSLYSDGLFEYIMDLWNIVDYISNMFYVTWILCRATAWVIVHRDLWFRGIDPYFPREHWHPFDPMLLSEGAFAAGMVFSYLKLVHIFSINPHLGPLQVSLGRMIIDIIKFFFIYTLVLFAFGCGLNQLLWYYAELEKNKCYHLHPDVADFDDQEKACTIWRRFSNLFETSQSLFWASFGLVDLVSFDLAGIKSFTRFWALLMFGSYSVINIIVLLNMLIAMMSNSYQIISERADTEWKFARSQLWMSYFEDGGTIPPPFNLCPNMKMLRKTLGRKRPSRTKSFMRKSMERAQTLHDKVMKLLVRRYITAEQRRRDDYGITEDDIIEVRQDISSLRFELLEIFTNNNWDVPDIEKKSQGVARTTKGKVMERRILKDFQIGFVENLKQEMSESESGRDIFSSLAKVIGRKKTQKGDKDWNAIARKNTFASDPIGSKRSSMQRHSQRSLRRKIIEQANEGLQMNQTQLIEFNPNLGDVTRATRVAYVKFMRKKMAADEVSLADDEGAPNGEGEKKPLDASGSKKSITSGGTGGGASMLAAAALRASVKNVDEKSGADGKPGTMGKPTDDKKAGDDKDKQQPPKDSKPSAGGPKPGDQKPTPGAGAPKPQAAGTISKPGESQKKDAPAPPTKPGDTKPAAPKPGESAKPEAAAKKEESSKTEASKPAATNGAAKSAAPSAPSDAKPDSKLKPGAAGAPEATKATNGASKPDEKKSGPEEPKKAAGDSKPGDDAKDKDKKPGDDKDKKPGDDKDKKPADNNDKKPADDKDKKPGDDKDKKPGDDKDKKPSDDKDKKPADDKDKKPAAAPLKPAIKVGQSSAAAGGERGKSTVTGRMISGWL

native TRPL channel = target: T3, native TRPL channel (Drosophila melanogaster, UniProt P48994); test: Light induced current
T3 sequence (P48994 1-1124): T1 sequence (P48994 1-1124)

Drosophila TRPL channel [6] = target: T1, Drosophila TRPL channel; conditions: Table 1; no own experiment shown; cited from earlier work

SMILES: Cc1ccc(C(C)C)cc1O [Carvacrol]
- Effect on TRPL-mediated current (Drosophila TRPL channel [1]; 500μM): Large suppression of the current
- TRPL Activation/Inhibition (Drosophila TRPL channel [1]): Inhibition
- Reversibility of effect on TRPL channel (Drosophila TRPL channel [1]): reversibly blocked
- Effect on current when TRPL was not expressed [2]: no effect
- Effect on TRPM7 mediated current (mammalian TRPM7; 500μM): dramatic decrease
- Reversibility of block of TRPM7 (mammalian TRPM7; HEK293 cells): reversibly blocked
- Effect on current in mock transfected HEK293 cells [3]: no effect
- ΔF median of boutons after application ([4]; before application 73): 75 arbitrary units (a.u)
- Number of FM detectable boutons after application ([4]; before application 578): 318
- Effect on presynaptic activity in control neurons [5]: did not affect
- ΔF median of boutons after application ([5]; before application 88): 87 arbitrary units
- Number of FM detectable boutons after application ([5]; before application 764): 845
- Effect on TRPM8 (TRPM8): only a minimal effect
- Effect on LIC of WT flies (TRP channel) (native TRP channel): inhibits
- Effect on amplitude of the LIC (native TRPL) (native TRPL channel; 500μM, trp^P343 mutant photoreceptor): dramatic reduction
- Requirement of light stimulation for inhibition of native TRPL (native TRPL channel; carvacrol applied in the dark, trp^P343): does not require light stimulation

SMILES: C=C(C)C1CC=C(C)C(O)C1 (mixture of isomers) [Carveol]
- IC50 (Drosophila TRPL channel [1]): 4.22 ± 0.4 mM
- Effect on TRPL-mediated current (Drosophila TRPL channel [1]; 5mM (caffeic acid: up to 5mM)): large decrease in the TRPL-dependent current
- TRPL Activation/Inhibition (Drosophila TRPL channel [1]): Inhibition

SMILES: Cc1ccc(C(C)C)c(O)c1 [Thymol]
- Effect on TRPL-mediated current (Drosophila TRPL channel [1]; 1mM): large decrease in the TRPL-dependent current
- TRPL Activation/Inhibition (Drosophila TRPL channel [1]): Inhibition

SMILES: O=C(O)/C=C/c1ccc(O)c(O)c1 [Caffeic acid]
- Effect on TRPL-mediated current (Drosophila TRPL channel [1]; 5mM (caffeic acid: up to 5mM)): did not block
- TRPL Activation/Inhibition (Drosophila TRPL channel [1]): No effect

SMILES: NCCOB(c1ccccc1)c1ccccc1 [2-APB, 2-Aminoethoxydiphenyl borate]
- TRPL Activation/Inhibition (Drosophila TRPL channel [6]): Inhibition

SMILES: CC1(C)C2CCC1(C)C(O)C2 (centres unmarked) [Borneol]
- Effect on TRPL-mediated current (Drosophila TRPL channel [1]; 5mM (caffeic acid: up to 5mM)): activated
- TRPL Activation/Inhibition (Drosophila TRPL channel [1]): Activation
- Reversibility of effect on TRPL channel (Drosophila TRPL channel [1]): completely reversible
- Effect on current when TRPL was not expressed [2]: no effect

SMILES: O=C/C=C/c1ccccc1 [Cinnamaldehyde]
- Effect on TRPL-mediated current (Drosophila TRPL channel [1]; 2mM): decrease in the TRPL mediated current
- TRPL Activation/Inhibition (Drosophila TRPL channel [1]): Inhibition
- Reversibility of effect on TRPL channel (Drosophila TRPL channel [1]): reversible

SMILES: CC12CCC(CC1=O)C2(C)C (centres unmarked) [Camphor]
- Effect on TRPL-mediated current (Drosophila TRPL channel [1]; 10mM): activated
- TRPL Activation/Inhibition (Drosophila TRPL channel [1]): Activation

SMILES: C=CCc1ccc(O)c(OC)c1 [Eugenol]
- Effect on TRPL-mediated current (Drosophila TRPL channel [1]; 3mM): large decrease in the TRPL-dependent current
- TRPL Activation/Inhibition (Drosophila TRPL channel [1]): Inhibition

SMILES: CC1CCC(C(C)C)C(O)C1 (centres unmarked) [Menthol]
- IC50 (Drosophila TRPL channel [1]): 1.81 ± 0.13 mM
- Effect on TRPL-mediated current (Drosophila TRPL channel [1]; 5mM (caffeic acid: up to 5mM)): large decrease in the TRPL-dependent current
- TRPL Activation/Inhibition (Drosophila TRPL channel [1]): Inhibition
